The supplement of paper PMC10307832

How the values were obtained:
Experiment in all cases: relative viability (nuclei count vs DMSO), 5 days (fraction); higher = more cells survive
BAY61-3606 + Dasatinib = compound: COC1=C(C=C(C=C1)C2=CC3=NC=CN3C(=N2)NC4=C(C=CC=N4)C(=O)N)OC [BAY61-3606] + Cc1nc(Nc2ncc(C(=O)Nc3c(C)cccc3Cl)s2)cc(N2CCN(CCO)CC2)n1 [Dasatinib] (partner 0.075 µM)
Outline: (§1)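 Cells from lung cancer lines were seeded into 1536-well plates and, one day later, dosed by pin tool. Treatments were either a single drug or a fixed dose of an anchor drug with five library-drug doses (not always all listed) in √10 steps. After 5 days, nuclei were stained in a one-step fixation (final 0.05% Triton X-100, 1% formaldehyde, 1 ug/ml Hoechst) and counted on 4× images, and relative viability is the treated-to-vehicle nuclei ratio, as the median of duplicate plates.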

Doxorubicin + Bortezomib = compound: COc1cccc2c1C(=O)c1c(O)c3c(c(O)c1C2=O)C[C@@](O)(C(=O)CO)C[C@@H]3O[C@H]1C[C@H](N)[C@H](O)[C@H](C)O1 [Doxorubicin] + CC(C)C[C@H](NC(=O)[C@H](Cc1ccccc1)NC(=O)c1cnccn1)B(O)O [Bortezomib] (partner 0.002 µM)
Outline: as §1

Doxorubicin + Tozasertib = compound: COc1cccc2c1C(=O)c1c(O)c3c(c(O)c1C2=O)C[C@@](O)(C(=O)CO)C[C@@H]3O[C@H]1C[C@H](N)[C@H](O)[C@H](C)O1 [Doxorubicin] + Cc1cc(Nc2cc(N3CCN(C)CC3)nc(Sc3ccc(NC(=O)C4CC4)cc3)n2)n[nH]1 [Tozasertib] (partner 0.1 µM)
Outline: as §1

Doxorubicin + Pemetrexed = compound: COc1cccc2c1C(=O)c1c(O)c3c(c(O)c1C2=O)C[C@@](O)(C(=O)CO)C[C@@H]3O[C@H]1C[C@H](N)[C@H](O)[C@H](C)O1 [Doxorubicin] + Nc1nc2[nH]cc(CCc3ccc(C(=O)N[C@@H](CCC(=O)O)C(=O)O)cc3)c2c(=O)[nH]1 [Pemetrexed] (partner 0.2 µM)
Outline: as §1

Row | Cell Line | relative viability (BAY61-3606 + Dasatinib; first compound 0.02 µM) | relative viability (BAY61-3606 + Dasatinib; first compound 0.06325 µM) | relative viability (BAY61-3606 + Dasatinib; first compound 0.2 µM) | relative viability (BAY61-3606 + Dasatinib; first compound 0.6325 µM) | relative viability (BAY61-3606 + Dasatinib; first compound 2 µM) | relative viability (Doxorubicin + Bortezomib; first compound 0.001 µM) | relative viability (Doxorubicin + Bortezomib; first compound 0.003162 µM) | relative viability (Doxorubicin + Bortezomib; first compound 0.01 µM) | relative viability (Doxorubicin + Bortezomib; first compound 0.03162 µM) | relative viability (Doxorubicin + Bortezomib; first compound 0.1 µM) | relative viability (Doxorubicin + Tozasertib; first compound 0.001 µM) | relative viability (Doxorubicin + Tozasertib; first compound 0.003162 µM) | relative viability (Doxorubicin + Tozasertib; first compound 0.01 µM) | relative viability (Doxorubicin + Tozasertib; first compound 0.03162 µM) | relative viability (Doxorubicin + Tozasertib; first compound 0.1 µM) | relative viability (Doxorubicin + Pemetrexed; first compound 0.001 µM) | relative viability (Doxorubicin + Pemetrexed; first compound 0.003162 µM) | relative viability (Doxorubicin + Pemetrexed; first compound 0.01 µM) | relative viability (Doxorubicin + Pemetrexed; first compound 0.03162 µM) | relative viability (Doxorubicin + Pemetrexed; first compound 0.1 µM)
1 | HCC-78 | 0.363 | 0.362 | 0.379 | 0.48 | 0.694 | 0.322 | 0.532 | 0.419 | 0.392 | 0.562 | 0.491 | 0.44 | 0.403 | 0.353 | 0.388 | 0.946 | 0.889 | 0.927 | 0.909 | 0.888
2 | HCC-366 | 0.56 | 0.548 | 0.626 | 0.597 | 0.439 | – | 1.06 | 1.05 | 0.326 | 0.0968 | – | 0.156 | 0.179 | 0.106 | 0.158 | 0.301 | 0.18 | 0.171 | 0.201 | 0.161
3 | HCC-827 | 0.332 | 0.328 | 0.363 | 0.315 | 0.24 | 1.05 | 1.03 | 1.07 | 1.01 | 0.956 | 0.45 | 0.391 | 0.407 | 0.416 | 0.432 | 0.272 | 0.281 | 0.22 | 0.247 | 0.261
4 | HOP-62 | 0.744 | 0.729 | 0.691 | 0.844 | 0.634 | 0.779 | 0.864 | 0.657 | 0.767 | 0.632 | 0.376 | 0.414 | 0.402 | 0.352 | 0.405 | 0.356 | 0.34 | 0.302 | 0.25 | 0.349
5 | IA-LM | – | – | – | – | – | 0.819 | 0.877 | 0.648 | 0.404 | 0.136 | – | – | – | – | – | – | – | – | – | –
6 | LK-2 | 0.334 | 0.217 | 0.347 | 0.368 | 0.379 | – | – | – | – | – | 0.153 | 0.156 | 0.134 | 0.177 | 0.19 | 0.225 | 0.255 | 0.228 | 0.26 | 0.238
7 | NCI-H358 | 0.17 | 0.158 | 0.149 | 0.179 | 0.138 | – | – | – | – | – | 0.107 | 0.0976 | 0.0897 | 0.1 | 0.0933 | 0.152 | 0.183 | 0.179 | 0.156 | 0.169
8 | NCI-H522 | 0.838 | 0.792 | 0.975 | 0.832 | 0.747 | – | – | – | – | – | 0.581 | 0.577 | 0.512 | 0.488 | 0.609 | 0.949 | 1.02 | 1.16 | 0.844 | 0.878
9 | NCI-H727 | 0.364 | 0.438 | 0.339 | 0.333 | 0.386 | 0.794 | 0.985 | 0.656 | 0.658 | 0.613 | 0.697 | 0.513 | 0.697 | 0.636 | 0.661 | – | – | – | – | –
10 | NCI-H1299 | – | – | – | – | – | 1.04 | 1.03 | 1.01 | 1.07 | 0.962 | – | – | – | – | – | – | – | – | – | –
11 | NCI-H1395 | 0.385 | 0.404 | 0.387 | 0.383 | 0.399 | – | – | – | – | – | 0.791 | 0.724 | 0.89 | 0.65 | 0.799 | 0.887 | 1.02 | 1.08 | 0.7 | 0.537
12 | NCI-H1563 | 0.477 | 0.406 | 0.508 | 0.421 | 0.428 | 0.716 | 0.772 | 0.594 | 0.515 | 0.421 | – | – | – | – | – | 0.734 | 0.825 | 0.838 | 0.777 | 0.536
13 | NCI-H1623 | 0.556 | 0.557 | 0.533 | 0.522 | 0.501 | – | – | – | – | – | 0.489 | 0.426 | 0.417 | 0.39 | 0.445 | – | – | – | – | –
14 | NCI-H1648 | – | – | – | – | – | – | – | – | – | – | 0.55 | 0.471 | 0.348 | 0.304 | 0.456 | 0.756 | 0.746 | 0.724 | 0.695 | 0.632
15 | NCI-H1703 | – | – | – | – | – | 0.234 | 0.324 | 0.25 | 0.165 | 0.0968 | – | – | – | – | – | – | – | – | – | –
16 | NCI-H1792 | 0.858 | 0.76 | 0.809 | 0.83 | 0.535 | 0.929 | 1.1 | 1 | 0.898 | 0.924 | – | – | – | – | – | 0.43 | 0.889 | 0.809 | 0.691 | 0.466
17 | NCI-H1793 | 0.365 | 0.357 | – | 0.32 | 0.427 | – | – | – | – | – | – | 0.403 | 0.348 | 0.286 | 0.358 | – | 1.11 | 0.904 | 0.617 | 0.784
18 | NCI-H1944 | 0.216 | 0.205 | 0.232 | 0.21 | 0.193 | – | – | – | – | – | 0.24 | 0.267 | 0.231 | 0.235 | 0.239 | 0.606 | 0.602 | 0.643 | 0.504 | 0.495
19 | NCI-H2170 | 0.64 | 0.508 | 0.539 | 0.465 | 0.352 | – | – | – | – | – | 0.741 | 0.711 | 0.651 | 0.581 | 0.701 | 0.248 | 0.265 | 0.32 | 0.252 | 0.274
20 | NCI-H2342 | 0.297 | 0.32 | 0.319 | 0.311 | 0.367 | – | – | – | – | – | 0.528 | 0.506 | 0.545 | 0.508 | 0.625 | 0.802 | 0.843 | 0.761 | 0.711 | 0.818
21 | SK-MES-1 | 0.379 | 0.302 | 0.357 | 0.339 | 0.23 | – | – | – | – | – | 0.856 | 0.867 | 0.583 | 0.211 | 0.162 | 0.926 | 0.899 | 0.872 | 0.291 | 0.234
22 | SW 900 | 0.84 | 0.559 | 0.706 | 0.457 | 0.303 | – | – | – | – | – | 0.543 | 0.491 | 0.596 | 0.456 | 0.231 | – | 0.461 | 0.465 | 0.498 | 0.412
